Legend:
[1] = tested on: human dopaminergic neurons (iCell DopaNeurons); test: MPP+-induced neurotoxicity: neurite outgrowth (neurite length, branch points) on iCell DopaNeurons; assay type: cell-based
Source text: MPP+(1-methyl-4-phenylpyridinium) is a known neurotoxin which acts by interfering with oxidative phosphorylation in mitochondria by inhibiting complex I, a protein in the membrane of mitochondria in dopaminergic neurons in the substantia nigra.(94) The inhibition of mitochondrial function leads to the depletion of ATP and eventual cell death. MPP+ ultimately causes Parkinsonism in primates by killing certain dopamine-producing neurons in the substantia nigra.
iCell DOPA neurons are neural floor plate-derived midbrain dopaminergic neurons generated from human induced pluripotent stem cells (iPSCs). Dopaminergic neurons, specifically those located in the floor plate-derived midbrain are implicated in neurological disorders such as Parkinson's disease, MSA and DLBD among others. […] The iCellDopa neurons were supplied from FUJIFILM Cellular Dynamics.
(§1) Procedure. iCell DOPA neurons were thawed and cultured following the provider's instructions in Brainphys medium+provided supplements+1% N2 supplement (Stemcell Technologies)+penicillin/streptomycin+Laminin. They were plated at 20000 cells per well of a 384 well plate (pre-coated with poly-D-lysine and Laminin) in 70 μL of growth medium. Cells were incubated at 37° ° C./5% CO2 in a humidified cell culture incubator. Half of the culture medium was changed twice a week.
(§2) MPP+-induced neurotoxicity: 24 hours after neuronal plating, half of the medium was removed and the test compounds were applied with MPP+ treatment, both concentrated at 4×, were added to the wells. For each well, five aliquots were added, corresponding columns A-E in Table 3. In each row, either the compound indicated dissolved in its vehicle noted in Table 2 was added, or only a vehicle was added as indicated. Column E is an indicator of whether MPP+ was added. If not, only the medium was added.
(§3) For the evaluation of conditions 8, 10,12, 22, 24, Neurite outgrowth was followed for subsequent 48 hours using an Incucyte Zoom platform with one phase contrast image every 4 hours, using a 20× objective. After 48 hours, the medium containing test compounds and MPP+ was removed and replaced by fresh medium containing a fluorescent cytolysis marker (red fluorescence) and a live cell marker (green fluorescence). For the evaluation of conditions 10, 12, 24, 38, 40, 51-53, Neurite outgrowth was followed similarly for subsequent 72 hours after MPP+ was added.
Assay endpoints and data analysis. Phase contrast images were analyzed at each time point to determine the neurite length and number of branch points per mm^2. Kinetic data was plotted and kinetics were normalized by subtracting the value of the first data point (at time of treatment), allowing to measure changes in neurite outgrowth only from the onset of the treatment, starting at zero. Area Under Curve (AUC) of kinetic data was obtained and used for plotting compound's effects and perform statistical analyzes.

[2] = tested on: human dopaminergic neurons (iCell DopaNeurons); test: MPP+-induced neurotoxicity: cytolysis of iCell DopaNeurons; assay type: cell-based; details: for Cytolysis, Mean ± S.D.: with MPP+ 100 μM
Description: Three different measurements were made in the experiments. Neurite length in mm was measured, which is a measure of increase in dendril length of neurons. […] Secondly, neurite branching was measured. […] Thirdly, cytolysis of the cells was measured. […] Experimental conditions were measured relative to the results of healthy cells in the studies.
as §1, §2, §3
Data was normalized to control conditions as there is basal cytolysis in the cell culture after thawing.

PD patients = details: at 6 months; cited from earlier work
R6/2 HD mice = details: 10-day oral treatment, 9-week mice; cited from earlier work
[3] = tested on: iPSC-derived dopaminergic (DA) neurons harboring triplication of the α-synuclein locus; test: α-Synuclein triplication cell line: neurofilament heavy chain signal intensity; assay type: cell-based, human; details: normalized to Hoechst signal; three months treatment; PBA 500 μM, TUDCA 50 μM, EXD 100 nM
Description: We used 12 replicas for each experimental condition and 16 replicas for control (untreated cells). […] Cells were washed three times with warm phosphate buffered saline (PBS) and imaged immediately at 20× magnification on an imageXpress Micro confocal at 37° C. and 5% CO2.
Following imaging, cells were immediately fixed with 4% paraformaldehyde for 30 minutes at room temperature, washed three times with PBS, permeabilized with 0.2% Triton X-100 for 30 minutes, blocked with Odyssey Blocking Buffer for 60 minutes, and incubated overnight at 4° C. with primary antibodies, neurofilament (1:1000, Synaptic Systems 171 002) and LB509 (1:100, Abcam ab27766). Cells were washed 3× with 0.1% Tween-20 in PBS and incubated with Alexa Fluor Goat Anti-Rabbit 790 (1:1000) and Goat Anti-Mouse 647 (1:1000) for 1 hour at RT, before washing 3× with 0.1% Tween-20 in PBS and imaging with Sapphire Biomolecular Imager. Neurofilament heavy chain signal intensity was normalized to fixed Hoechst signal measured with Spectra Gemini plate reader (ex=350 nm, em=461 nm), using Hoechst 33342 nucleic acid stain from Invitrogen according to the manufacturer's instructions. Neurofilaments (NF) are located mostly in axons and indicate roughly the content of neurites. If neurodegeneration is halted or reversed, NF signal increases because it correlates with the number and/or length of neurites in the well.

[4] = tested on: IL-6 mediated inflammation in microglial cells; test: LPS/ATP-induced neuroinflammation in microglia: IL-6 secretion (Luminex); assay type: cell-based, human
Source text: (§4) In addition to the studies discussed above assessing activity of combinations of drugs on MPP+-induced neurodegeneration toxicity on human dopaminergic neurons as well as on a human iPSC cell line harboring a triplication mutation in alpha-synuclein gene, and measuring neuronal growth, neurite branching and neurofilament heavy chain, we also assessed combinations of drugs in reducing lipopolysaccharide (LPS, from E. coli)-induced neuroinflammation in human microglia cells.
(§5) Lipopolysaccharides are important outer membrane components of gram-negative bacteria such as E. coli and Salmonella. They are large amphipathic glycoconjugates that typically consist of a lipid domain (hydrophobic) attached to a core oligosaccharide and a distal polysaccharide. LPS binds to Toll-like receptor 4 (TLR4) and activates microglia(98) which in turn increases secretion of pro-inflammatory cytokines such as interleukin-6 (IL-6), tumor necrosis factor-α (TNF-α), and CXCL1/GROα.
(§6) Microglia cells were obtained from an iCell® Microglia kit, 01279 (Catalogue N^o R1131) from FUJIFILM Cellular Dynamics. We followed the manufacturer's protocol for activation of the microglial cells with LPS/ATP to subsequently measure the effect of the study drugs on pro-inflammatory cytokines IL-6, TNF-α and CXCL1/GROα.
(§7) All cell culture procedures were performed in aseptic conditions, under a laminar flow hood. Microglia were thawed and cultured following the provider's instructions. The microglia were plated at 50,000 cells per well of a Corning Primaria 96 well plate (Ref N^o 353872) in 100 μL of growth medium. Cells were incubated at 37° C./5% CO2 in a humidified cell culture incubator.
(§8) Three days after cell plating, the test or reference substances (25 μL of solutions at 5×) were applied 1 hour before LPS and ATP stimulation.
(§9) One hour later, 12.5 μL of test or reference substances were added again at 2× concentrated followed by 12.5 μL of LPS at 12× concentration. Fifty microliters of ATP were introduced at 4× concentration, 5 h 30 min after incubation with LPS.
(§10) Six hours after LPS incubation, the supernatant of each well was collected and centrifugated at 1000 g for 10 minutes to remove the cells and debris.
(§11) Fifty microliters of supernatant from NT and LPS+ATP-treated wells were used to determine cytokine secretion (IL-6, TNF-α, CXCL1/GROα) by Luminex platform according to the provider's instructions. Samples were diluted prior to the assay to fit within the standard range if needed. Three wells were tested per each condition (Table 11). Cytokines levels in the supernatant were expressed in pg/mL. The data was analyzed using a One-Way ANOVA followed by Bonferroni test.

[5] = tested on: TNF-α mediated neuroinflammation in microglial cells; test: LPS/ATP-induced neuroinflammation in microglia: TNF-α secretion (Luminex); assay type: cell-based, human
Source text: as §4, §5, §6, §7, §8, §9, §10, §11

[6] = tested on: CXCL1/GROα mediated neuroinflammation in microglial cells; test: LPS/ATP-induced neuroinflammation in microglia: CXCL1/GROα secretion (Luminex); assay type: cell-based, human
Source text: as §4, §5, §6, §7, §8, §9, §10, §11

[7] = tested on: riluzole-treated patients; details: cited from earlier work
APP/PS1 mice = details: 6-month treatment with 0.4% of TUDCA in diet; cited from earlier work
cortical neurons = details: 100 μM for 12 h; cited from earlier work
MPTP mouse model = details: pre-treatment 50 mg/kg for 3 days; cited from earlier work
R6/2 transgenic mice = details: 500 mg/kg; cited from earlier work
[8] = tested on: patients with rapidly progressive SOD1 ALS; details: not statistically significant; cited from earlier work
SOD(G93A) mice = details: treatment from 75 days; cited from earlier work
[9] = LPS (100 ng/mL) + ATP (5 mM), six hours after LPS
[10] = compared with […] distilled water in presence of LPS and ATP

## Cc1c(O)c(=O)ccn1C [DFP, Deferiprone]
[1]; MPP+ 100 μM
  Protective effect on neurite length and branching (in words): substantially inferior to condition 40
[1]; Table 6.1, plate 2, with MPP+ 100 μM
  Neurite length - Baseline-corrected AUC (0-72 h), Mean: 874.5 mm/mm^2
[1]; Table 6.2, plate 2, with MPP+ 100 μM
  Number of branch points per mm^2 - Baseline-corrected AUC (0-72 h), Mean: 24282.5 per mm^2
[1]; Table 8.1, plate 2, with MPP+ 100 μM, 72 hours
  Neurite length, Mean ± S.D.: 1303.0 ± 378.7 mm/mm^2
[1]; Table 8.2, plate 2, with MPP+ 100 μM, 72 hours
  Neurite Branching, Mean ± S.D.: 51711.3 ± 15178.4 per mm^2
[2]; Table 9.2, plate 2
  Cytolysis, Mean ± S.D.: 71.91 ± 1.28%
PD patients
  UPDRS for motor skills, early start group: 21.6±8
R6/2 HD mice
  Motor endurance: improved motor endurance

## C[C@H](CCC(=O)NCCS(=O)(=O)O)[C@H]1CC[C@H]2[C@@H]3[C@@H](O)C[C@@H]4C[C@H](O)CC[C@]4(C)[C@H]3CC[C@]12C [TUDCA, Tauroursodeoxycholic acid]
[1]; AUC, MPP+ 100 μM
  Increase of neurite length compared with MPP+ alone (control/MPP+): 43%
  Increase of number of branch points compared with MPP+ alone (control/MPP+): 60%
[1]; Table 7.1, plate 1, with MPP+ 100 μM, 72 hours
  Neurite length, Mean: 1825.9 mm/mm^2
[1]; Table 7.2, plate 1, with MPP+ 100 μM, 72 hours
  Neurite Branching, Mean ± S.D.: 58836.3 ± 9596.4 per mm^2
[2]; Table 9.1, plate 1
  Cytolysis, Mean ± S.D.: 70.69 ± 2.02%
[2]; vs Control/MPP+
  Reduction of cytolysis (cell death) (in words): did not reduce cytolysis with statistical significance
[3]
  Neurofilament Heavy Chain signal intensity, mean: 1.313
[4]; [9]
  IL-6 in supernatant, Mean ± S.D.: 437.81 ± 24.71 pg/mL
  IL-6 in supernatant, Replicate 1: 410.97 pg/mL
  IL-6 in supernatant, Replicate 2: 442.87 pg/mL
  IL-6 in supernatant, Replicate 3: 459.60 pg/mL
[4]; [10]
  Decrease of IL-6 concentration: 37%
[5]; [9]
  TNF-α in supernatant, Mean ± S.D.: 28.57 ± 0.58 pg/mL
  TNF-α in supernatant, Replicate 1: 29.01 pg/mL
  TNF-α in supernatant, Replicate 2: 27.92 pg/mL
  TNF-α in supernatant, Replicate 3: 28.79 pg/mL
[5]; [10]
  Decrease of TNF-α concentration: 52%
[6]; [9]
  CXCL1/GROα in supernatant, Mean ± S.D.: 424.96 ± 48.95 pg/mL
  CXCL1/GROα in supernatant, Replicate 1: 447.19 pg/mL
  CXCL1/GROα in supernatant, Replicate 2: 368.84 pg/mL
  CXCL1/GROα in supernatant, Replicate 3: 458.86 pg/mL
[6]; [10]
  Decrease of GROα concentration: 32%
[7]; P=0.007
  Baseline-adjusted ALSFRS-R at study end vs placebo: significantly higher
[7]; human, in vivo
  Tolerability: well tolerated
[7]; placebo 43%, P=0.021
  Proportion of responders: 87%
APP/PS1 mice
  Aβ plaque accumulation in the brain: prevented Aβ plaque accumulation in the brain
Cortical neurons
  Aβ peptide-associated apoptosis: significantly decrease Aβ peptide-associated apoptosis
MPTP mouse model
  Neurodegeneration of nigral dopaminergic neurons caused by MPTP: significantly reduced neurodegeneration of the nigral dopaminergic neurons
R6/2 transgenic mice
  Neuroprotection: neuroprotective effects

## [O-][n+]1cccc(/C(Cl)=N/OC[C@H](O)CN2CCCCC2)c1 [arimoclomol, Arimoclomol]
[8]
  Survival, hazard ratio: 0.77
SOD(G93A) mice
  Lifespan: significantly increased the lifespan

Reference: patent US20240252594A1, “COMBINATION THERAPY FOR NEURODEGENERATIVE DISEASES” (ALETA NEUROSCIENCE, LLC, priority 2021, published 2024)
